Values quoted from earlier work in patent US20240016760A1, “Multivitamin” (priority 2022, published 2024).

What was measured:
CFTR protein = settings: patients with CF
CFTR Chloride channels = CFTR Chloride channels (Homo sapiens, UniProt P13569); settings: increase from zero, at the appropriate concentrations
CFTR Chloride channels, sequence (P13569 whole entry): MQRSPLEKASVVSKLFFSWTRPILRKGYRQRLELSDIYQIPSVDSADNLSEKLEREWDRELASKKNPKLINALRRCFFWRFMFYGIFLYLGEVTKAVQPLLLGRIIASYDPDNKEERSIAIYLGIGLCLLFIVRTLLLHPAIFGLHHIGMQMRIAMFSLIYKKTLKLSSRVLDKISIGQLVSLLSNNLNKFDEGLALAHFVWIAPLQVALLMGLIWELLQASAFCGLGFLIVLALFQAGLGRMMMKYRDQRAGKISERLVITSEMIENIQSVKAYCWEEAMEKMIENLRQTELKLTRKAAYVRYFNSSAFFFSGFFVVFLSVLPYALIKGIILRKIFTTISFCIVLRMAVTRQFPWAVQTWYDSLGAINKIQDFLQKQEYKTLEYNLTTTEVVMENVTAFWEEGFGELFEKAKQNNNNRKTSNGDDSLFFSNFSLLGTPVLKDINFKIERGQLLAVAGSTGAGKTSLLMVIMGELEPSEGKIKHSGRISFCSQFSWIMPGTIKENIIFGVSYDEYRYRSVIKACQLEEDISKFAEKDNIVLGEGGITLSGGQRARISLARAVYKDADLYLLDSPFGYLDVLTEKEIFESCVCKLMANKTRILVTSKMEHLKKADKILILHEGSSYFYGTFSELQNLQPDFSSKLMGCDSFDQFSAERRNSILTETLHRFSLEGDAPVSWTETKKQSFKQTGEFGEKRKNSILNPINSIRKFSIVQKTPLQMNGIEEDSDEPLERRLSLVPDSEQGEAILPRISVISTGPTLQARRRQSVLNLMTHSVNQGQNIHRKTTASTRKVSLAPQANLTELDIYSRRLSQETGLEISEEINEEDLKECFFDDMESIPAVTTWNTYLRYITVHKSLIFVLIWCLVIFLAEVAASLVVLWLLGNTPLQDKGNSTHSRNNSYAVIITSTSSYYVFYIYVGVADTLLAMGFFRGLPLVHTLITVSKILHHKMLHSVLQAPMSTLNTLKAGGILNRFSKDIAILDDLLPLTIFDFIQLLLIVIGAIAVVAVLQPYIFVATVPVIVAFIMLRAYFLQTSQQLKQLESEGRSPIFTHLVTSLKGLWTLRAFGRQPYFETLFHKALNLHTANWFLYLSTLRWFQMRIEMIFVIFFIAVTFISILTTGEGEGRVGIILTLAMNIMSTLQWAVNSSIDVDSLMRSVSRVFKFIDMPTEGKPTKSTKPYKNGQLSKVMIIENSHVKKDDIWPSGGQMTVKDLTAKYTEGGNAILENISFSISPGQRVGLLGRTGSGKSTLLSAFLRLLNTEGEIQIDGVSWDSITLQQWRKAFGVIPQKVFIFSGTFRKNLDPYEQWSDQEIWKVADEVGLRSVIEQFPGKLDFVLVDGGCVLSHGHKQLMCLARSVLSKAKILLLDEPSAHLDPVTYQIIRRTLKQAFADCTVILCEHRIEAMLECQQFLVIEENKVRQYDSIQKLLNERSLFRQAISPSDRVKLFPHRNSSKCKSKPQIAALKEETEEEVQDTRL

average open probability of CFTR Chloride channels (CFTR Chloride channels) | Structure (SMILES) | average increase in lung function (as measured by FEV1) (CFTR protein)
 | CC(C)(C)c1cc(C(C)(C)C)c(NC(=O)c2c[nH]c3ccccc3c2=O)cc1O [Ivacaftor, ivacaftor] | ~2%
0.21 (+0.08) | O=C1O[C@H]([C@@H](O)CO)C(O)=C1O [vitamin C] | 
